Earlier results on one molecule are cited in US5472628A, “Liquid detergents with an aryl acid for inhibition of proteolytic enzyme” (The Procter & Gamble Company, priority 1994, dated 1995).

The data set concerns the target subtilisin. To be noted: quoted in the description, read-out: Ki (inhibition constants of boronic acids for subtilisin).

Regarding `OB(O)c1ccc(Br)cc1` [4-bromobenzene boronic acid], the Ki was 10 µM.

A word on the Ki: it is the dissociation constant of the complex between target and ligand, obtained from inhibition or displacement.
